The CheMixHub ionic liquid set

Test: xn = mol fraction of the nth substance listed

CCC[n+]1ccn(C)c1.C[C@H](N)C(=O)[O-] + O
viscosity [mPa·s], 100.3 kPa
Conditions	288.15 K	293.15 K	298.15 K	303.15 K	308.15 K	313.15 K	318.15 K	323.15 K	328.15 K
x1 = 0.0003008	1.156	1.017	0.9	0.81	0.727	0.661	0.604	0.554	0.511
x1 = 0.0003999	1.162	1.022	0.907	0.813	0.732	0.664	0.606	0.557	0.513
x1 = 0.0004953	1.167	1.027	0.911	0.817	0.735	0.666	0.608	0.559	0.516
x1 = 0.001005	1.203	1.057	0.938	0.838	0.755	0.685	0.626	0.573	0.529
x1 = 0.003004	1.362	1.197	1.057	0.939	0.842	0.759	0.688	0.629	–
x1 = 0.004999	1.513	1.326	1.163	1.028	0.917	0.828	0.749	0.685	–
x1 = 0.007004	1.658	1.447	1.273	1.119	0.998	0.894	0.806	0.736	–
x1 = 0.008999	1.822	1.576	1.368	1.21	1.071	0.959	0.868	0.781	–
x1 = 0.011	1.958	1.698	1.478	1.302	1.147	1.027	0.929	0.832	–
x1 = 0.01301	2.101	1.819	1.581	1.38	1.225	1.089	0.986	0.888	–
x1 = 0.015	2.247	1.941	1.678	1.469	1.293	1.157	1.037	0.932	–
x1 = 0.01799	2.46	2.109	1.826	1.599	1.394	1.254	1.115	1	–

CC[n+]1ccccc1.N#C[N-]C#N + O
100 kPa
Conditions	electrical conductivity [S/m]	viscosity [mPa·s]
298.15 K, x1 = 0.9411	2.15	–
298.15 K, x1 = 0.9677	1.94	–
298.15 K, x2 = 0.01044	–	16.52
303.15 K, x1 = 0.9542	2.27	–
303.15 K, x1 = 0.9756	–	13.97
308.15 K, x1 = 0.9542	2.58	–
308.15 K, x2 = 0.01044	–	12.55
313.15 K, x1 = 0.9355	–	10.08
313.15 K, x1 = 0.9619	–	10.49
313.15 K, x1 = 0.9677	2.82	–
313.15 K, x2 = 0.01044	–	11.02
318.15 K, x1 = 0.9542	3.25	–
323.15 K, x1 = 0.9756	–	8.27
328.15 K, x1 = 0.9756	–	7.44
333.15 K, x1 = 0.9283	4.91	–
333.15 K, x1 = 0.9411	4.81	–
333.15 K, x1 = 0.9677	4.61	–
338.15 K, x1 = 0.9355	–	5.76
338.15 K, x1 = 0.9485	–	5.86
338.15 K, x1 = 0.9756	–	6.1

Cn1cc[n+](C)c1.[Cl-] + O
viscosity [mPa·s], 100 kPa
Conditions	x1 = 8.631e-05	x1 = 0.0002029	x1 = 0.0003509	x1 = 0.0005369	x1 = 0.0007226	x1 = 0.0008926	x1 = 0.001063	x1 = 0.001349	x1 = 0.001718
278.15 K	1.521	1.526	1.529	1.533	1.536	1.538	1.544	1.548	1.553
283.15 K	1.307	1.311	1.313	1.317	1.32	1.323	1.327	1.33	1.334
288.15 K	1.141	1.143	1.145	1.148	1.15	1.152	1.155	1.159	1.164
293.15 K	1.006	1.007	1.009	1.012	1.014	1.016	1.018	1.022	1.026
298.15 K	0.893	0.895	0.897	0.899	0.901	0.903	0.906	0.908	0.912
303.15 K	0.802	0.803	0.804	0.805	0.806	0.808	0.811	0.813	0.817
308.15 K	0.721	0.723	0.724	0.727	0.728	0.73	0.732	0.734	0.737
313.15 K	0.654	0.655	0.657	0.659	0.66	0.662	0.664	0.666	0.669
